Measurements from patent US20250163076A1, “SYNTHESIS OF BRUTON'S TYROSINE KINASE INHIBITORS” (JANSSEN PHARMACEUTICA NV, priority 2022, published 2025).
≈ marks a conversion by molar mass, not a printed value. Like-named read-outs stand apart in the source and are kept apart here. Blank lines part the entries; values can stand above or below the molecule they belong to.

Tests used:
PPB % free, human = details: plasma
PPB % free, rat = assay type: in vitro ADME; details: plasma
[1] = system: B-cell activation via B-cell receptor in rat whole blood; assay: Rat whole blood assay, anti-IgD stimulated B-cell activation; assay type: cell-based; details: for IC50: Rattus norvegicus, B-cell, anti-IgD stimulation
Protocol: (§1) The activity of Compound M was assessed in rat and human whole blood assays using anti-IgD and anti-IgM stimulation, respectively, to trigger B-cell activation via B-cell receptor.

BTK = BTK (Homo sapiens, UniProt Q06187); assay: BTK covalent inhibition kinetics (KI, kinact, kinact/KI); assay type: biochemical; details: for kinact/KI: read-out: kinact/KI
Sequence of BTK (Q06187 whole entry): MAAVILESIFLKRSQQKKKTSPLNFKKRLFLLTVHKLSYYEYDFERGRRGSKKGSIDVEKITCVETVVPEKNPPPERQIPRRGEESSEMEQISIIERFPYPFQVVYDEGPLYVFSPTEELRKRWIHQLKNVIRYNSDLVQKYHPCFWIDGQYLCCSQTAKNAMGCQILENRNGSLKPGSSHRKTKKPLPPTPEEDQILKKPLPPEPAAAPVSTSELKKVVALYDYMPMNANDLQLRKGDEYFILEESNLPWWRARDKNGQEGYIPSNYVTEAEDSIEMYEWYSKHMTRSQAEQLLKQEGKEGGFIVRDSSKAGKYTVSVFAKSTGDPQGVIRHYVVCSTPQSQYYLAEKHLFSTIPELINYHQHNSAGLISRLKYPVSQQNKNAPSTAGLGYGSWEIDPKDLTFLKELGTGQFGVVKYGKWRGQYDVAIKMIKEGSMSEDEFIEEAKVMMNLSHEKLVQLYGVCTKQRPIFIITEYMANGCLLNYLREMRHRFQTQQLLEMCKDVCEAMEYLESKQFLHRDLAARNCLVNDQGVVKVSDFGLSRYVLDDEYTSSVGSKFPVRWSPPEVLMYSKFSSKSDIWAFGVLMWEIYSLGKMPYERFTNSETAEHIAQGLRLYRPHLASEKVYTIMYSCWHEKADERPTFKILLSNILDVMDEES
Protocol: The development of the structure-activity relationship was conducted by characterizing the non-covalent affinity of each inhibitor for BTK (KI) and the first order rate constant for irreversible covalent bond formation (kinact). The second order rate constant kinact/KI ratio is used to assess the covalent inhibitor potency because it is independent of incubation time and substrate concentrations (Copeland, R. A. Evaluation of Enzyme Inhibitors in Drug Discovery: a Guide for Medicinal Chemists and Pharmacologists; 2nd ed.; Wiley: Hoboken, N.J., 2013).

[2] = Aqueous solubility at pH 2 and pH 7; assay type: physicochemical; details: for Solubility: Table 5
PPB % free, cyno = assay type: in vitro ADME; details: cynomolgus monkey, plasma
[3] = system: anti-IgM induced B cell activation in human whole blood; assay: Human whole blood assay, anti-IgM induced B cell activation; assay type: cell-based; details: anti-IgM stimulation
Protocol: as §1

[4] = Human liver microsomes T1/2; assay type: in vitro ADME; details: Table 5; for half-life: human, liver microsomes
PPB % free, dog = assay type: in vitro ADME; details: plasma
Mouse CD69 cell = assay: Mouse CD69 splenocyte assay; assay type: cell-based
[5] = human, plasma
[6] = Rat oral bioavailability (% F); assay type: in vivo; details: for bioavailability: in vivo, oral
[7] = Liver microsomes T1/2 (Table 3); assay type: in vitro ADME; details: species not given
[8] = Epimerization kinetics / rotational energy barrier of atropisomers in solvents; assay type: physicochemical
Protocol: The rotational energy barrier of compound of Formula (II) atropisomers was estimated according to the method known in the art. The rotational barrier was determined in several solvents and their aqueous mixtures and the results are reported in Table 13, where an average value of 120.5 kJ mol^−1 or 28.8 kcal mol^−1, corresponding to epimerization half-lives of 63.8 and 4.0 months at 20° C. and 37° C., respectively, were obtained, placing this compound on the top segment of Class 2 atropisomers according to the classification systems known in the art. The rotational barrier is slightly influenced by the solvent and increases in the order 1-butanol<2-butanol<1-propanol<propylene carbonate. Additionally, increasing amounts of water increased substantially the rotational barrier in all solvents with the highest value obtained in 1-propanol/water 33/67 w/w % system. Unfortunately, due to the low aqueous solubility of compound of Formula (II) in water, epimerization studies could not be accurately conducted in pure water.
Enriched compound of Formula (II) of the P isomer was dissolved in the respective solvent to create a concentration of ˜1 wt % and was placed in a standard screw cap vial (1.8 mL) equipped with a magnetic stirring bar. Subsequently, the vial was placed in the heating block of a parallel reactor setup (Crystal16, Technobis B.V.) which was preheated to the desired temperature (80° C.-100° C., depending on the solvent). At given time intervals, small aliquot samples were taken in an HPLC vial, diluted, and the diastereomeric excess of the mixture was determined by an UPLC apparatus, equipped with an Acquity UPLC BEH C18 column (0.6 ml/min, gradient 10 mM ammonium acetate acetonitrile 95-5 v/v % and acetonitrile at 35° C.). The time points and corresponding decay of diastereomeric excess (d.e.) were plotted as t vs ln (1/d.e.) to determine the interconversion rate constant, rotational energy barrier and epimerization half-life at the respective solvent and temperature:
[formula] [formula] [formula] • where [P], [M] are the concentrations of the P and M isomers, respectively, ke is the interconversion rate constant (s^−1), ΔGe^‡ is the rotational energy barrier (KJ mol^−1), T is the absolute temperature, kB, h and R are the Boltzmann, Planck and universal gas constants, respectively and t1/2 is the epimerization half-life. An example of the data treatment and determination procedure for ke is shown in FIG. 9 for propylene carbonate system at 100° C.

[9] = as above; assay type: physicochemical; details: buffer, t1/2 at 100° C.
[10] = Table 5, average of 2 independent determinations (± SD)
[11] = aqueous medium, aqueous buffer, pH 7, read-out: Solubility pH 7
[12] = aqueous medium, simulated gastric fluid, pH 2, read-out: Solubility pH 2

Compound: C=CC(=O)N[C@H]1CCC[C@H]1NC(=O)c1sc2nccc3c2c1NC(=O)N3c1cnc(CC(C)C)cc1C (single isomer, unassigned) [Compound M]
fraction unbound (PPB % free, human): 0.031
fraction unbound (PPB % free, rat): 0.037
IC50 [1]: 41 ± 12 nM
more potent in rat whole blood ([1]; compared to Compound A): 3 fold
Ki (BTK; [10]): 48.5 ± 2.9 nM
kinact (BTK; [10]): 0.000348 s⁻¹
kinact/KI (BTK; Table 5): 7290 ± 590 M⁻¹ s⁻¹
pH 2 solubility ([2]; Table 6, pH 2): 320 μM
pH 7 solubility ([2]; Table 6, pH 7): 7 μM
Solubility [2, 11]: 7 µM (≈ 3.63 µg/mL)
Solubility [2, 12]: 320 µM (≈ 166 µg/mL)
fraction unbound (PPB % free, cyno): 0.032
IC50 [3]: 89 ± 12 nM
half-life [4]: 0.0264 days
fraction unbound (PPB % free, dog): 0.063
IC50 (Mouse CD69 cell): 99 ± 68 nM

Compound: C=CC(=O)N[C@H]1CCC[C@H]1NC(=O)c1sc2nccc3c2c1NC(=O)N3c1cnc(CC(C)C)cc1C [Formula (II), N-((1R,2S)-2-acrylamidocyclopentyl)-5-(6-isobutyl-4-methylpyridin-3-yl)-4-oxo-4,5-dihydro-3H-1-thia-3,5,8-triazaacenaphthylene-2-carboxamide]
ΔG ([8]; 1-butanol): 28.49 kcal/mol
half-life ([8]; 1-butanol, t1/2 at 20° C.): 1100 days
ΔG ([8]; 1-butanol/water 85/15 w/w %): 28.68 kcal/mol
half-life ([8]; 1-butanol/water 85/15 w/w %, t1/2 at 20° C.): 1460 days
ΔG ([8]; 1-propanol): 28.7 kcal/mol
half-life ([8]; 1-propanol, t1/2 at 20° C.): 1460 days
ΔG ([8]; 1-propanol/water 33/67 w/w %): 29.09 kcal/mol
half-life ([8]; 1-propanol/water 33/67 w/w %, t1/2 at 20° C.): 3290 days
ΔG ([8]; 1-propanol/water 50/50 w/w %): 28.97 kcal/mol
half-life ([8]; 1-propanol/water 50/50 w/w %, t1/2 at 20° C.): 2560 days
ΔG ([8]; 1-propanol/water 67/33 w/w %): 28.85 kcal/mol
half-life ([8]; 1-propanol/water 67/33 w/w %, t1/2 at 20° C.): 2190 days
ΔG ([8]; 1-propanol/water 80/20 w/w %): 28.82 kcal/mol
half-life ([8]; 1-propanol/water 80/20 w/w %, t1/2 at 20° C.): 2190 days
ΔG ([8]; 2-MeTHF): 28.54 kcal/mol
half-life ([8]; 2-MeTHF, t1/2 at 20° C.): 1100 days
ΔG ([8]; 2-butanol): 28.54 kcal/mol
half-life ([8]; 2-butanol, t1/2 at 20° C.): 1100 days
ΔG ([8]; 2-butanol/water 70/30 w/w %): 28.78 kcal/mol
half-life ([8]; 2-butanol/water 70/30 w/w %, t1/2 at 20° C.): 1830 days
ΔG ([8]; 3-methyl-1-butanol): 28.39 kcal/mol
half-life ([8]; 3-methyl-1-butanol, t1/2 at 20° C.): 1100 days
ΔG ([8]; 3-methyl-1-butanol/water 91/9 w/w %): 28.61 kcal/mol
half-life ([8]; 3-methyl-1-butanol/water 91/9 w/w %, t1/2 at 20° C.): 1460 days
ΔG ([8]; Acetonitrile): 29.16 kcal/mol
half-life ([8]; Acetonitrile, t1/2 at 20° C.): 3650 days
ΔG ([8]; EA): 28.59 kcal/mol
half-life ([8]; EA, t1/2 at 20° C.): 1460 days
ΔG ([8]; EtOH): 28.99 kcal/mol
half-life ([8]; EtOH, t1/2 at 20° C.): 2560 days
ΔG ([8]; IPA): 28.87 kcal/mol
half-life ([8]; IPA, t1/2 at 20° C.): 2190 days
ΔG ([8]; IPAC): 28.73 kcal/mol
half-life ([8]; IPAC, t1/2 at 20° C.): 1830 days
ΔG ([8]; MEK): 28.8 kcal/mol
half-life ([8]; MEK, t1/2 at 20° C.): 1830 days
ΔG ([8]; MIBK): 28.54 kcal/mol
half-life ([8]; MIBK, t1/2 at 20° C.): 1100 days
ΔG ([8]; Propylene carbonate): 28.9 kcal/mol
ΔG ([8]; Toluene): 30.02 kcal/mol
half-life ([8]; buffer, t1/2 at 85° C.): 0.156 days
half-life ([8]; buffer, t1/2 at 120° C.): 0.00417 days
half-life ([8]; propylene carbonate, t1/2 at 20° C.): 2190 days
ΔG ([8]; propylene carbonate/water 93/7 w/w %): 28.94 kcal/mol
half-life ([8]; propylene carbonate/water 93/7 w/w %, t1/2 at 20° C.): 2560 days
half-life [9]: 0.0299 days

Results, then the molecule that gave them:

IC50 [1]: 130 ± 11 nM
Ki (BTK; Table 3, average of two independent determinations (±SD)): 28.8 ± 21 nM
PPB % free [5]: 0.16%
Rat % F (1 g/kg, crystalline suspension) ([6]; 1 g/kg, crystalline suspension): <1%
bioavailability ([6]; 1 g/kg, crystalline suspension, read-out: Rat % F (1 g/kg, crystalline suspension)): < 1%
bioavailability ([6]; 20% HP-β-CD solution, read-out: Rat % F (20% HP-β-CD solution)): 29.7%
pH 2 solubility ([2]; Table 3, pH 2): <4/<4 μM
pH 7 solubility ([2]; Table 3, pH 7): <4/<4 μM
pH 2 solubility ([2]; Table 6, pH 2): <4/<4 μM
pH 7 solubility ([2]; Table 6, pH 7): <4/<4 μM
Liver microsomes T1/2 ([7]; first of the two values printed 23/40): 0.016 days
half-life ([7]; liver microsomes, second of the two values printed 23/40): 0.0278 days
IC50 [3]: 84 ± 39 nM
Compound: C=CC(=O)N1CC[C@@H](NC(=O)c2sc3nccc4c3c2NC(=O)N4c2ccc(Oc3ccccc3)cc2C)C1 [Compound A]

Ki (BTK; [10]): 2550 nM
kinact (BTK; [10]): 0.000255 s⁻¹
kinact/KI (BTK; Table 5): 98.5 ± 12 M⁻¹ s⁻¹
Solubility [2, 11]: 172 µM (≈ 86.8 µg/mL)
Solubility [2, 12]: > 400 µM
half-life [4]: 0.0368 days
Compound: C=CC(=O)N1CCC(NC(=O)c2sc3nccc4c3c2NC(=O)N4c2cnc(CC(C)C)cc2C)C1 (stereo not drawn) [K]

Ki (BTK; [10]): 2430 nM
kinact (BTK; [10]): 0.000317 s⁻¹
kinact/KI (BTK; Table 5): 131 ± 2 M⁻¹ s⁻¹
Solubility ([2]; pH 7, read-out: Solubility pH 7): 220 µM (≈ 105 µg/mL)
Solubility [2, 12]: > 400 µM
Human liver microsomes T1/2 [4]: 0.0188 days
Compound: C=CC(=O)NCCNC(=O)c1sc2nccc3c2c1NC(=O)N3c1cnc(CC(C)C)cc1C [L]
